Measurements reported in the NIST ThermoML archive (doi:10.1021/je060271a).
Numbers after ± are expanded uncertainties.

Details: 283.14 K, Liquid, Vibrating tube method

Measured: mass density

CCCCCCC(=O)OCC(COC(=O)CCCCCC)(COC(=O)CCCCCC)COC(=O)CCCCCC [pentaerythritol tetraheptanoate]
992 ± 1.2 kg/m3: 10595 kPa | 10727 kPa | 10770 kPa | 10795 kPa | 10863 kPa | 10909 kPa | 10931 kPa | 10979 kPa | 11072 kPa
993.5 ± 1.2 kg/m3: 13418 kPa | 13451 kPa | 13541 kPa | 13558 kPa | 13578 kPa | 13595 kPa | 13612 kPa | 13632 kPa | 13648 kPa | 13666 kPa
992.1 ± 1.2 kg/m3: 10886 kPa | 10957 kPa | 11100 kPa | 11173 kPa
991.6 ± 1.2 kg/m3: 9902.5 kPa | 9942.1 kPa | 9978.3 kPa | 10018 kPa | 10059 kPa | 10078 kPa | 10137 kPa | 10156 kPa | 10174 kPa | 10216 kPa | 10277 kPa
991 ± 1.2 kg/m3: 8943.7 kPa | 8967.5 kPa | 8987.8 kPa | 9012.5 kPa | 9033.2 kPa | 9051.6 kPa | 9118.5 kPa | 9168 kPa
991.9 ± 1.2 kg/m3: 10445 kPa | 10485 kPa | 10529 kPa | 10549 kPa | 10615 kPa | 10640 kPa | 10661 kPa | 10682 kPa | 10706 kPa | 10748 kPa | 10816 kPa | 10842 kPa
991.4 ± 1.2 kg/m3: 9452.9 kPa | 9644.3 kPa | 9681.7 kPa | 9698.7 kPa | 9719.2 kPa | 9736.6 kPa | 9792.1 kPa | 9845.5 kPa | 9866.9 kPa | 9884.8 kPa
992.5 ± 1.2 kg/m3: 11627 kPa | 11657 kPa | 11707 kPa | 11732 kPa | 11762 kPa | 11813 kPa | 11901 kPa | 11981 kPa
992.8 ± 1.2 kg/m3: 12099 kPa | 12161 kPa | 12264 kPa | 12288 kPa | 12308 kPa | 12333 kPa | 12506 kPa
991.1 ± 1.2 kg/m3: 9069.4 kPa | 9103.3 kPa | 9136.4 kPa | 9183.2 kPa | 9198.7 kPa | 9217 kPa | 9232.5 kPa | 9267.1 kPa | 9368.1 kPa | 9538.2 kPa
993.2 ± 1.2 kg/m3: 12971 kPa | 12999 kPa | 13021 kPa | 13045 kPa | 13096 kPa | 13123 kPa | 13201 kPa
993.4 ± 1.2 kg/m3: 13243 kPa | 13294 kPa | 13329 kPa | 13348 kPa | 13365 kPa | 13399 kPa | 13435 kPa | 13488 kPa | 13524 kPa
991.7 ± 1.2 kg/m3: 9999.8 kPa | 10197 kPa | 10258 kPa | 10296 kPa | 10319 kPa | 10509 kPa
992.6 ± 1.2 kg/m3: 11788 kPa | 11870 kPa | 12013 kPa | 12040 kPa | 12067 kPa | 12190 kPa
991.2 ± 1.2 kg/m3: 9088.3 kPa | 9152.5 kPa | 9248.5 kPa | 9282.6 kPa | 9298.5 kPa | 9333.1 kPa | 9348.8 kPa | 9382 kPa | 9401.3 kPa | 9417.4 kPa | 9468.9 kPa | 9485.1 kPa
993.1 ± 1.2 kg/m3: 12643 kPa | 12760 kPa | 12782 kPa | 12805 kPa | 12854 kPa | 12899 kPa | 12926 kPa | 12948 kPa
991.3 ± 1.2 kg/m3: 9317.3 kPa | 9436.7 kPa | 9504.9 kPa | 9521.4 kPa | 9557.6 kPa | 9594.2 kPa | 9610.7 kPa | 9664.8 kPa
992.3 ± 1.2 kg/m3: 11266 kPa | 11318 kPa | 11394 kPa | 11422 kPa | 11446 kPa | 11470 kPa
991.5 ± 1.2 kg/m3: 9574.2 kPa | 9771.3 kPa | 9809.7 kPa | 9923.9 kPa | 9960.2 kPa | 10037 kPa | 10096 kPa
993.3 ± 1.2 kg/m3: 12876 kPa | 13072 kPa | 13146 kPa | 13176 kPa | 13225 kPa | 13262 kPa | 13278 kPa | 13313 kPa | 13383 kPa
993 ± 1.2 kg/m3: 12439 kPa | 12485 kPa | 12574 kPa | 12596 kPa | 12665 kPa | 12687 kPa | 12713 kPa | 12734 kPa | 12827 kPa
992.4 ± 1.2 kg/m3: 11370 kPa | 11499 kPa | 11524 kPa | 11548 kPa | 11573 kPa | 11602 kPa | 11682 kPa
993.6 ± 1.2 kg/m3: 13471 kPa | 13504 kPa | 13721 kPa | 13738 kPa | 13759 kPa | 13776 kPa
991.8 ± 1.2 kg/m3: 10114 kPa | 10239 kPa | 10339 kPa | 10359 kPa | 10382 kPa | 10401 kPa | 10425 kPa | 10465 kPa | 10574 kPa
993.7 ± 1.2 kg/m3: 13687 kPa | 13704 kPa
992.2 ± 1.2 kg/m3: 11005 kPa | 11028 kPa | 11050 kPa | 11122 kPa | 11145 kPa | 11197 kPa | 11221 kPa | 11244 kPa | 11294 kPa | 11342 kPa
992.7 ± 1.2 kg/m3: 11844 kPa | 11928 kPa | 11954 kPa | 12127 kPa | 12219 kPa | 12243 kPa | 12353 kPa
992.9 ± 1.2 kg/m3: 12373 kPa | 12398 kPa | 12418 kPa | 12464 kPa | 12527 kPa | 12553 kPa | 12622 kPa
